Laboratory results: patent publication EP4461773A1, “FLUORESCENT HEMICRYPTOPHANES AND USES THEREOF” (Ecole Centrale de Marseille, priority 2023, dated 2024)
Like-named read-outs stand apart in the source and are kept apart here.

What was measured:
[1] = comparative data, stated as obtained according to the same procedure; footnotes cite New J. Chem. 2019 and GFP congress 2022; cited from earlier work
[2] = Fluorescence titration with chlordecone, binding constant calculated with Bindfit; conditions: compounds of the invention; DMSO+2% H2O, 25 °C, host 5.0 µM or 0.5 µM, chlordecone 5.0 mM additions
Protocol: A solution of each hemicryptophane (2.5 mL, 5.0 µM for hosts 9 and 5 and 0.5 µM for host 8) in DMSO+2% H2O was transferred into the quartz cuvette. Successive additions of a concentrated chlordecone solution (5.0 mM in the same solvent mixture) were performed. The final volume of the solution was almost unchanged (2.5 mL) since very small volumes of chlordecone solution were added. The solutions were mixed and incubated for 30 s before irradiation at their maximum of excitation (274 nm, 297 nm and 349 nm for hosts 9, 5, 8 respectively) at 25 °C. The corresponding emission values during titration were then recorded. Fluorescence emission spectra are reproduced at Figures 1A (5), 1B (8), and 1C (9) and the relative fluorescence intensities as a function of the [chlordecone]/[hemicryptophane] are reproduced at Figures 2A (5), 2B (8), and 2C (9).
Binding constant (Ka) were calculated using Bindfit program and results are reproduced at Table 1 below, further including comparative data obtained according to the same procedure.

[3] = in water at pH 7, estimated; cited from earlier work

Compound | Binding constant (Ka) [1] | other results
COc1cc2c3cc1OCCOc1ccc(cc1)CNC(=O)CN1CC(=O)NCc4ccc(cc4)OCCOc4cc(c(cc4OC)C3)Cc3cc(OC)c(cc3C2)OCCOc2ccc(cc2)CNC(=O)C1 | [drawing 21] Ka = 126 L/mol ± 3.7% | 
C(#Cc1cc2c3cc1OCCOc1ccc(cc1)CNCCN1CCNCc4ccc(cc4)OCCOc4cc(c(cc4C#Cc4ccccc4)C3)Cc3cc(C#Cc4ccccc4)c(cc3C2)OCCOc2ccc(cc2)CNCC1)c1ccccc1 | [drawing 25] Ka = 1.4 x 10^5 L/mol ± 12% | 
COc1cc2c3cc1OCCOc1ccc4cc(ccc4c1)CNCCN1CCNCc4ccc5cc(ccc5c4)OCCOc4cc(c(cc4OC)C3)Cc3cc(OC)c(cc3C2)OCCOc2ccc3cc(ccc3c2)CNCC1 | [drawing 23] Ka = 6.4 x 10^3 L/mol ± 4.4% | 
COc1cc2c3cc1OCCOc1ccc(cc1)CNCCN1CCNCc4ccc(cc4)OCCOc4cc(c(cc4OC)C3)Cc3cc(OC)c(cc3C2)OCCOc2ccc(cc2)CNCC1 | [drawing 22] Ka = 2.1 x 10^4 L/mol ± 3.4% | 
COc1cc2c3cc1OCCOc1ccc(cc1)CN(S(=O)(=O)c1cccc4c(N(C)C)cccc14)CCN1CCN(S(=O)(=O)c4cccc5c(N(C)C)cccc45)Cc4ccc(cc4)OCCOc4cc(c(cc4OC)C3)Cc3cc(OC)c(cc3C2)OCCOc2ccc(cc2)CN(S(=O)(=O)c2cccc3c(N(C)C)cccc23)CC1 | [drawing 27] Ka = 3.0 x 10^3 L/mol ± 6.9% | 
COc1cc2c3cc1OCCNCc1cc(-c4ccccc4)ccc1OCc1cc4cc(c1)COc1ccc(-c5ccccc5)cc1CNCCOc1cc(c(cc1OC)Cc1cc(c(OC)cc1C3)OCCNCc1cc(-c3ccccc3)ccc1OC4)C2 [compound 9] |  | Binding constant (Ka) [2]: [drawing 20] Ka = 4.6 x 10^5 L/mol ± 17%
O=C1C2(Cl)C3(Cl)C4(Cl)C(Cl)(Cl)C5(Cl)C3(Cl)C1(Cl)C5(Cl)C24Cl (centres unmarked) [Chlordecone] |  | solubility [3]: around 2 mg/L
COc1cc2c3cc1OCCOc1ccc(cc1-c1ccccc1)CNCCN1CCNCc4ccc(c(-c5ccccc5)c4)OCCOc4cc(c(cc4OC)C3)Cc3cc(OC)c(cc3C2)OCCOc2ccc(cc2-c2ccccc2)CNCC1 | [drawing 26] Ka = 1.9 x 10^4 L/mol ± 75% | 
